From ChEMBL document CHEMBL1159158, “Cyclic urea HIV protease inhibitors containing alkynyl- and alkenyl-tethered heterocycles in the P2 region” (Bioorg Med Chem Lett, 1996)

These compounds were tested against T1, Human immunodeficiency virus type 1 protease (Human immunodeficiency virus 1, UniProt Q72874) (assay: Binding affinity to HIV-protease).

| SMILES | Ki |
| --- | --- |
| O=C1N(CC#Cc2cnc3ccccc3c2)[C@H](Cc2ccccc2)[C@H](O)[C@@H](O)[C@@H](Cc2ccccc2)N1CC#Cc1cnc2ccccc2c1 | ≥ 1000 nM |
| COCCOCn1cc(C#CCN2C(=O)N(CC#Cc3cnn(COCCOC)c3)[C@H](Cc3ccccc3)[C@H](O)[C@@H](O)[C@H]2Cc2ccccc2)cn1 | ≥ 1000 nM |
| C#CCN1C(=O)N(CC#C)[C@H](Cc2ccccc2)[C@@H]2OC(C)(C)O[C@H]2[C@H]1Cc1ccccc1 | 22 nM |
| CC(C)(C)OC(=O)C1CCCN1CC#CCN1C(=O)N(CC#CCN2CCCC2C(=O)OC(C)(C)C)[C@H](Cc2ccccc2)[C@H](O)[C@@H](O)[C@H]1Cc1ccccc1 (stereo partly drawn) | ≥ 1000 nM |
| O=C1N(CC#CCN2CCCCC2)[C@H](Cc2ccccc2)[C@H](O)[C@@H](O)[C@@H](Cc2ccccc2)N1CC#CCN1CCCCC1 | ≥ 1000 nM |
| O=C1N(CC#Cc2cc3ccccc3cn2)[C@H](Cc2ccccc2)[C@H](O)[C@@H](O)[C@@H](Cc2ccccc2)N1CC#Cc1cc2ccccc2cn1 | ≥ 1000 nM |
| O=C1N(CC#CCN2CCOCC2)[C@H](Cc2ccccc2)[C@H](O)[C@@H](O)[C@@H](Cc2ccccc2)N1CC#CCN1CCOCC1 | ≥ 1000 nM |
| CC(C)N(CC#CCN1C(=O)N(CC#CCN(C(C)C)C(C)C)[C@H](Cc2ccccc2)[C@H](O)[C@@H](O)[C@H]1Cc1ccccc1)C(C)C | ≥ 1000 nM |
| CCN(CC)CC#CCN1C(=O)N(CC#CCN(CC)CC)[C@H](Cc2ccccc2)[C@H](O)[C@@H](O)[C@H]1Cc1ccccc1 | ≥ 1000 nM |
| CC(C)(C)OC(=O)n1cc(C#CCN2C(=O)N(CC#Cc3cnn(C(=O)OC(C)(C)C)c3)[C@H](Cc3ccccc3)[C@H](O)[C@@H](O)[C@H]2Cc2ccccc2)cn1 | ≥ 1000 nM |

Now from value to compound:

| Ki | SMILES |
| --- | --- |
| ≥ 1000 nM | CC1(C)O[C@@H]2[C@@H](O1)[C@@H](Cc1ccccc1)N(CC#Cc1cccnc1)C(=O)N(CC#Cc1cccnc1)[C@@H]2Cc1ccccc1 |
| ≥ 1000 nM | CC1(C)O[C@@H]2[C@@H](O1)[C@@H](Cc1ccccc1)N(CC#Cc1cncnc1)C(=O)N(CC#Cc1cncnc1)[C@@H]2Cc1ccccc1 |
| ≥ 1000 nM | CC1(C)O[C@@H]2[C@@H](O1)[C@@H](Cc1ccccc1)N(CC#Cc1cnc3ccccc3c1)C(=O)N(CC#Cc1cnc3ccccc3c1)[C@@H]2Cc1ccccc1 |
| ≥ 1000 nM | O=C1N(CC#Cc2cncnc2)[C@H](Cc2ccccc2)[C@H](O)[C@@H](O)[C@@H](Cc2ccccc2)N1CC#Cc1cncnc1 |
| ≥ 1000 nM | O=C1N(CC#Cc2cccs2)[C@H](Cc2ccccc2)[C@H](O)[C@@H](O)[C@@H](Cc2ccccc2)N1CC#Cc1cccs1 |
| ≥ 1000 nM | COCCOCn1cc(C#CCN2C(=O)N(CC#Cc3cnn(COCCOC)c3)[C@H](Cc3ccccc3)[C@@H]3OC(C)(C)O[C@H]3[C@H]2Cc2ccccc2)cn1 |
| ≥ 1000 nM | CC(C)(C)OC(=O)n1cc(C#CCN2C(=O)N(CC#Cc3cnn(C(=O)OC(C)(C)C)c3)[C@H](Cc3ccccc3)[C@@H]3OC(C)(C)O[C@H]3[C@H]2Cc2ccccc2)cn1 |
| ≥ 1000 nM | O=C1N(CC#Cc2cn[nH]c2)[C@H](Cc2ccccc2)[C@H](O)[C@@H](O)[C@@H](Cc2ccccc2)N1CC#Cc1cn[nH]c1 |
| ≥ 1000 nM | CC1(C)O[C@@H]2[C@@H](O1)[C@@H](Cc1ccccc1)N(CC#Cc1cn[nH]c1)C(=O)N(CC#Cc1cn[nH]c1)[C@@H]2Cc1ccccc1 |
| ≥ 1000 nM | O=C1N(CC#Cc2ccsc2)[C@H](Cc2ccccc2)[C@H](O)[C@@H](O)[C@@H](Cc2ccccc2)N1CC#Cc1ccsc1 |
| ≥ 1000 nM | CC1(C)O[C@@H]2[C@@H](O1)[C@@H](Cc1ccccc1)N(CC#Cc1cccs1)C(=O)N(CC#Cc1cccs1)[C@@H]2Cc1ccccc1 |
| ≥ 1000 nM | CC1(C)O[C@@H]2[C@@H](O1)[C@@H](Cc1ccccc1)N(CC#Cc1ccsc1)C(=O)N(CC#Cc1ccsc1)[C@@H]2Cc1ccccc1 |
| ≥ 1000 nM | O=C1N(CC#Cc2cccnc2)[C@H](Cc2ccccc2)[C@H](O)[C@@H](O)[C@@H](Cc2ccccc2)N1CC#Cc1cccnc1 |
| ≥ 1000 nM | CC1(C)O[C@@H]2[C@@H](O1)[C@@H](Cc1ccccc1)N(CC#Cc1cc3ccccc3cn1)C(=O)N(CC#Cc1cc3ccccc3cn1)[C@@H]2Cc1ccccc1 |

Each compound was assayed against T1, Human immunodeficiency virus type 1 protease (assay: Compound was evaluated for binding affinity towards HIV-Protease enzyme.).

| SMILES | Ki |
| --- | --- |
| O=C1N(C/C=C/c2cn[nH]c2)[C@H](Cc2ccccc2)[C@H](O)[C@@H](O)[C@@H](Cc2ccccc2)N1C/C=C/c1cn[nH]c1 | 0.25 nM |
| O=C1N(C/C=C/c2cn[nH]c2)[C@H](Cc2ccccc2)[C@H](O)[C@@H](O)[C@@H](Cc2ccccc2)N1CC1CC1 | 0.41 nM |

The compounds below were run against Human immunodeficiency virus type 1 protease (Human immunodeficiency virus 1) (UniProt Q72874) (assay: Compound was evaluated for its antiviral activity against HIV-Protease in cell based assay.).

| SMILES | IC90 |
| --- | --- |
| O=C1N(C/C=C/c2cn[nH]c2)[C@H](Cc2ccccc2)[C@H](O)[C@@H](O)[C@@H](Cc2ccccc2)N1C/C=C/c1cn[nH]c1 | 370 nM |
| O=C1N(C/C=C/c2cn[nH]c2)[C@H](Cc2ccccc2)[C@H](O)[C@@H](O)[C@@H](Cc2ccccc2)N1CC1CC1 | 820 nM |
